The values that follow come from PMC10886690, “Synthesis, Characterization, Antioxidant, and Anticancer Activity against Colon Cancer Cells of Some Cinnamaldehyde-Based Chalcone Derivatives” (Biomolecules, 2024).

Series [1] relates to Caco-2 cells. In words: MTT cytotoxicity against Caco-2 cells. It counts as cell-based, human. The following applies: Homo sapiens, Caco-2, 24 h, 24 h incubation, mean ± SD of three analyses, read-out: IC50 Conc. against Caco-2 cells. As for the experimental part: (§1) The American Type Culture Collection (ATCC) provided WI-38 (ATCC CCL-75), a cell line from the healthy human embryonic lung, and Caco-2 (ATCC HTB-37), a cell line from colon cancer. These cells were developed in DMEM medium that was supplemented with antibiotics and fetal bovine serum in a 5% CO2 humidified incubator at 37 °C.
The toxicity of the tested compounds (3a–3k) toward Caco-2 cancer cells was examined and compared to 5-Fluorouracil (5-FU, the standard reference drug) utilizing MTT assay, as previously explained. In brief, 1 × 10^5 Caco-2 cells/mL were distributed into each well of a 96-well plate and kept overnight at 37 °C in their growth mixture. The cells were then subjected to the various doses of the studied compounds (50–1000 µM). Following that, the cells were exposed to MTT solution, which induced formazan formation from the MTT, a byproduct of the metabolism of MTT that is proportionate to the quantity of intact cells. To further dissolve the formazan crystal, dimethyl sulfoxide was applied to the cells. Caco-2 survival was obtained through measuring the value of the optical density at 570 nm implementing a microplate reader (Bio-Rad, Hercules, CA, USA), and the effect of the substances on cell proliferation was expressed using the aforementioned formula (2):Cell viability % = (Abs. of tested sample − Abs. of blank)/(Abs. of control − Abs. of blank) × 100(2)
The half-suppression (IC50) dose of the test drugs over a 24 h incubation period was identified through examination of the concentration–response curve. Each value was evaluated three times, and the average of the three ratings was employed to obtain the results.

Series [2] concerns wi38 cells. In words: MTT test on healthy WI38 cells. Type of series: cell-based, human. Conditions: 24 h. As for the experimental part: as §1
The effects of the investigated compounds on the survival of healthy cells, WI38, have been evaluated and compared to 5-Fluorouracil (5-FU, the standard reference drug) utilizing the MTT test at concentrations ranging from 50 to 1000 µM to further determine whether the substances were secure for usage on living tissues. Three distinct evaluations of each value were carried out to calculate the final findings.
A general note: Formazan colour is commonly taken as a measure of viable cells.

Turning to `O=C(/C=C/C=C/c1ccc([N+](=O)[O-])cc1)c1cccnc1` [3i, (2E,4E)-5-(4-nitrophenyl)-1-(pyridin-3-yl)penta-2,4-dien-1-one], in series [1], the IC50 (as a rule, the midpoint of a concentration-inhibition curve) worked out at 207 ± 2.31 µM.

For `O=C(/C=C/C=C/c1ccc([N+](=O)[O-])cc1)c1cccs1` [3j, (2E,4E)-5-(4-nitrophenyl)-1-(thiophen-2-yl)penta-2,4-dien-1-one], the melting point (usually the temperature, or range, at which the solid turns liquid) was 218 °C. Further, the IC50 in series [1] was determined as 149 ± 2.55 µM.

Take `O=C(/C=C/C=C/c1ccccc1)c1ccco1` [3d, (2E,4E)-1-(furan-2-yl)-5-phenylpenta-2,4-dien-1-one]: in series [1], the IC50 was > 1000 µM.

`COc1ccccc1/C=C/C=C/C(=O)c1ccccn1` [3f, (2E,4E)-5-(2-methoxyphenyl)-1-(pyridin-2-yl)penta-2,4-dien-1-one]: the melting point amounted to 195 °C. The IC50 in series [1] was found to be 173 ± 3.84 µM.

For the molecule `COc1ccccc1/C=C/C=C/C(=O)c1ccc[nH]1` [3g, (2E,4E)-5-(2-methoxyphenyl)-1-(1H-pyrrol-2-yl)penta-2,4-dien-1-one], the melting point amounted to 177 °C. For the same molecule, the half-maximal inhibitory concentration (IC50) in series [1] is 336 ± 4.96 µM.

For the molecule `O=c1[nH]cc(F)c(=O)[nH]1` [5-FU, 5-Fluorouracil, reference compound], the “effect on wi38 normal cell viability” value in series [2] (50 to 1000 µM) is listed as “decrease in wi38 cell viability with increasing its concentration”. The IC50 stood at 22.8 ± 2.46 µM in series [2] (Homo sapiens, WI-38, 50–1000 µM, read-out: IC50 against normal wi38 cell) and 33.1 ± 1.45 µM in series [1].

In turn, `O=C(/C=C/C=C/c1ccccc1)c1ccccn1` [3a, (2E,4E)-5-phenyl-1-(pyridin-2-yl)penta-2,4-dien-1-one] yielded a melting point of 182 °C. In addition, in series [1], the IC50 came out at 725.6 ± 3.69 µM.

Molecule `O=C(/C=C/C=C/c1ccc([N+](=O)[O-])cc1)c1ccccn1` [3h, (2E,4E)-5-(4-nitrophenyl)-1-(pyridin-2-yl)penta-2,4-dien-1-one] returned a melting point of 205 °C. Besides, in series [1], the IC50 worked out at 548.6 ± 3.76 µM.

Consider `O=C(/C=C/C=C/c1ccccc1)c1cccs1` [3c, (2E,4E)-5-phenyl-1-(thiophen-2-yl)penta-2,4-dien-1-one], for which the melting point came out at 102 °C. Also, the IC50 in series [1] was > 1000 µM.

`O=C(/C=C/C=C/c1ccc([N+](=O)[O-])cc1)c1ccco1` [3k, (2E,4E)-1-(furan-2-yl)-5-(4-nitrophenyl)penta-2,4-dien-1-one] displayed a melting point of 189 °C. The concentration for half-maximal inhibition (IC50) in series [1] stood at 130 ± 3.28 µM.

In the case of `O=C(/C=C/C=C/c1ccccc1)c1cccnc1` [3b, (2E,4E)-5-phenyl-1-(pyridin-3-yl)penta-2,4-dien-1-one], the melting point was 104 °C. Also, the IC50 in series [1] was > 1000 µM.
